Results on three molecules are retold here after patent publication US7241732B2, “Compositions and methods involved in bone growth” (University of Rochester, priority 2001, dated 2007).

In data set [1] the test system is TGFβ reporter construct (P3TPlux). The experiment in a line: P3TP lux TGFβ reporter in transfected osteoblasts. It is filed as cell-based. The conditions noted are these: FIG. 9. Here is the method: Note the difference in scales. N=4-6.
Functionality of TRIP for TGFβ signaling was determined by measuring the activation of a TGFβ promoter/reporter construct, P3TP Lux (see Experimental Design for a complete description of this construct).
Osteoblasts, cultured at 30-40% confluence in 6-well plates, are transfected on day 2 after plating using the transfection reagent Superfect (Qiagen Santa Clarita, Calif.) according to the manufacturer's guidelines. Individual experiments are internally controlled for amount of total plasmid DNA, with equal amounts of p3TP-Lux reporter, control SV40-renilla plasmid for normalization of transfection efficiency, and target construct and/or vector control DNA for all co-transfection experiments. Following transfection, the cells are placed in media containing DMEM, Penicillin/Streptomycin, and 10% NuSerum IV. After 12 hours, they are incubated for 6 hours in serum-free media (containing DMEM, hyaluronidase 4 U/ml, Penicillin/Streptomycin, and supplemented with 10 pM triiodothyronine (Sigma, St. Louis, Mo.), 60 ng/ml insulin, and 1 mM cysteine (Sigma, St. Louis, Mo.)) plus the factor or cytokine of interest. Eighteen hours later, the cells are harvested and assayed for luciferase activity using the Promega dual luciferase assay system. Renilla luciferase values were used to normalize each sample for transfection efficiency.

Another data set relates to D14 primary osteoblasts. The data set can be described thus: OPG sandwich ELISA. In kind it is cell-based. The following applies: following treatment. As to the method: OPG is the deccoy receptor for the RNAKL and stop the osteoclastogenesis. RANKL and OPG has been proposed for the regulation of osteoclast differentiation function. Both OPG and RANKL can themselves also be regulated by TGF-β (MacDonald R G, Science 239:1134-7, (1988)). […] This lower the secretion amount of OPG the less the protection afforded from the osteoclast.
(§1) After incubation, the plates were washed with PBS-Tween.

The next data set relates to isolated osteoblasts. The data set can be described thus: Osteoblast phenotypic markers (alkaline phosphatase, Runx2, OPG, collagen). In kind it is cell-based, rat. The conditions noted are these: TRAP 10 μg/ml, TGFβ 2 ng/ml; percent of control, FIG. 14. As to the method: The qualitative pattern of stimulation by TRAP and TGFβ for markers of osteoblast differentiation is similar. […] Alkaline phosphatase (Alk. Phos.) was measured in a direct biochemical assay. Runx2 and osteoprotegerin (OPG) were quantified in an ELISA assay using commercially available antibodies. Collagen was measured by determining the amount of collagenase-digestible protein present in pre-labeled osteoblasts (34). All data are expressed as a percent of the control, untreated cells. All data points are the mean±one SEM. * p 0.05. ** p 0.01.
Isolated osteoblasts were prepared from neo-natal rat calvaria as previously described (Martinez D A, et al., J. Cellular Biochemistry 59: 246-257 (1995)). Alkaline phosphatase assays and standard Western analyses were performed as previously described (Ionescu A M. ET AL., Journal of Biological Chemistry. 276:11639-47 (2001)).
as §1
Osteoblast differentiation at sites of bone remodeling is mediated by a number of regulatory factors. One of the key factors is TGFβ. In most systems, including the typically the disclosed system, TGFβ is known to be a potent enhancer of the osteoblast phenotype.

Data set [2] concerns P3TP-Lux reporter in MG-63 cells. The data set can be described thus: P3TP-Lux Smad 2,3 reporter in osteoblast cell lines. In kind it is cell-based, human. From the text:
P3TPLux is a Smad 2, 3 sensitive reporter. […] Co-transfection of the cells with a dominant negative TGFβ type II receptor blocks all TRAP and TGFβ signaling. Each bar is the mean of at least four determinations±SEM. * p 0.05 and ** p 0.01 as compared to control. The data for MG-63 cells are shown. The data for the SaOS2 cells are the same (data not shown).
The data with the MG-63 cell is what is shown.

For a further data set, the system named is SW408 cells. The experiment in a line: P3TP-Lux reporter in Smad4 deficient cells. It is filed as cell-based. The text has this: SW408 cells are deficient in Smad4, a requisite co-factor for Smad2 and 3 signaling. […] However, when the cells are transfected with both Smad4 and TRIP-1, restoration of Smad signaling can occur. All values are the mean±SEM. * p 0.05 and ** p 0.01 as compared to control.

For a further data set, the system named is ROS 17/2.8 cells. The data set can be described thus: Apoptosis of ROS 17/2.8 cells on exposure to TRAP (morphology, alkaline phosphatase stain). The following applies: 0.1% DMSO, then TRAP 5 ug/mL. In kind it is cell-based. The text has this:
DMSO, at this low concentration, itself won't cause any toxic effect on cells but can scavenge most of reactive oxygen species. […] Therefore, the TRAP-induced cell apoptosis is not due to a reactive oxygen species effect.

For data set [3], the target named is T1, TGFβRII, HIS-TRIP and Smad 2 (Homo sapiens, UniProt Q13347).
T1 construct: expressed in transfected cells; host or cells: 293T cells transfected with TGFβRII and His-TRIP-1; Smad 2 endogenous
The experiment in a line: GST-TRAP pull-down of receptor complex from transfected 293T cells. In kind it is binding. The conditions noted are these: exogenous GST-TRAP 12 hours. The text has this:
293T cells were transfected with TGFβRII. Some of these cells were then co-transfected with a “His”-tagged TRIP-1 (His-TRIP-1). In lane A, in which both the receptor and TRIP-1 were present, but GST-TRAP was not added, no parts of the complex could be “pulled down” with glutathione coated beads. The same was true if His-TRIP-1 was not transfected into the cells. However, if the receptor, TRIP-1 and GST-TRAP were all present, a protein complex composed of the receptor, TRIP-1 and Smad 2 could be extracted with glutathione coated beads.
GST-TRAP and GST-TRIP fusion proteins, and GST control protein were purified as instructed by the manufacturer (Amersham Pharmacia). Briefly, plasmids containing GST-fusion protein expressing cDNA were transformed into a BL21DE3)pLysS bacteria strain and selected for ampicillin and chloramphenicol resistant colonies. Selected colonies were grown in LB medium at 30° C. until OD600 reached 0.6 to 1. Then 0.1 mM IPTG was added to medium for 3 hours. Bacteria were lysed by B-PER (Pierce) with 1 mM PMSF. Lysed bacteria were spun down and the supernatants were collected. […]
Detection of HIS-TRIP was performed with anti-HIS antibodies and detection of the TGFβRII and Smad 2 were performed with a commercially available antibodies. […] The beads were extensively washed and the proteins interacting with the beads were analyzed with Western analysis.

The subject of data set [4] is rat calvarial osteoblasts after 14 days of culture. The experiment in a line: Cleaved caspase 3 and cleaved PARP levels. It is filed as cell-based. The following applies: day 14 cells, FIGS. 24 and 25.
Text: Biochemical confirmation of the effect of TRAP on osteoblast apoptosis was obtained by assaying levels of caspase-3 and poly ADP-ribose polymerase (PARP) in these cells lines. […] Thus, another indicator of a cells progression through apoptosis is a measurement of its cleaved caspase 3 levels. Similarly, poly ADP-ribose polymerase is a substrate for active caspase 3 and increased levels of cleave PARP are indicative of an active caspase.

T1 sequence (Q13347 whole entry): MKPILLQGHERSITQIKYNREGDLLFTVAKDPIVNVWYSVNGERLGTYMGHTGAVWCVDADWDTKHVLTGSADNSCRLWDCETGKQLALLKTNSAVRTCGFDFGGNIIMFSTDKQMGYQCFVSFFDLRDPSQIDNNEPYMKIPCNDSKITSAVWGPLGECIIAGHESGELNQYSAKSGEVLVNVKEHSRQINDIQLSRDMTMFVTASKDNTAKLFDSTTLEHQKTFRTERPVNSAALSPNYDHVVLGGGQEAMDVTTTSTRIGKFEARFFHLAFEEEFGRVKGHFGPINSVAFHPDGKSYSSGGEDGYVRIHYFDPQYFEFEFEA
T1 sequence (P37173 23-567 partner): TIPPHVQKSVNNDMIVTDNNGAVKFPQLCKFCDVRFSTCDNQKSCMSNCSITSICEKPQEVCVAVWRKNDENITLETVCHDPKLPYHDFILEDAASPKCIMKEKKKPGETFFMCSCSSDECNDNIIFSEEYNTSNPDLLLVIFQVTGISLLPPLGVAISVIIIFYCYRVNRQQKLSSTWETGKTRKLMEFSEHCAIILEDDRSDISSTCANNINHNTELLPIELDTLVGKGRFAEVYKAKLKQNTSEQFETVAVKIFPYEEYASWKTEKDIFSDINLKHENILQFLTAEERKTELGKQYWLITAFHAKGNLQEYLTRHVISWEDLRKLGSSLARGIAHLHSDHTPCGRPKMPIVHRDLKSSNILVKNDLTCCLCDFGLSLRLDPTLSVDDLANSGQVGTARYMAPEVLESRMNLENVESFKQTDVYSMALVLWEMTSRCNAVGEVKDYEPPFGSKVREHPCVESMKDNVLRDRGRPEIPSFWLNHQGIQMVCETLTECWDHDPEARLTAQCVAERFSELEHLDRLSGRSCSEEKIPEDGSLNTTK
T1 sequence (Q15796 2-467 partner limits assumed): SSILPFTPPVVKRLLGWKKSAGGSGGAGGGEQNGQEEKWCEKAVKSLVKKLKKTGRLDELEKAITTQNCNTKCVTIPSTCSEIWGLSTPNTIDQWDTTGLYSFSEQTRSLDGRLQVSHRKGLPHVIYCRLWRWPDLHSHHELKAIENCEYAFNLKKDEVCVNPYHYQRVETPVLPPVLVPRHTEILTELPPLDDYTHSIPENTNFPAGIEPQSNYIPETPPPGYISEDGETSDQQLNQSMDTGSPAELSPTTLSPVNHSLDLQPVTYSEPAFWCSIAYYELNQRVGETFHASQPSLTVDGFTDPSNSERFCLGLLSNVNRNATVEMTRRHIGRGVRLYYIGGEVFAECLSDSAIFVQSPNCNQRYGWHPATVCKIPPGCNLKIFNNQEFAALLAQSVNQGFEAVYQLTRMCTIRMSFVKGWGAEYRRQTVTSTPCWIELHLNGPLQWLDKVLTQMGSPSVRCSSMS

With TGFβ, the “activation of P3TP lux” value in data set [1] is on record as “strongly activate P3TP lux”. Besides, the “level of OPG” value in the data set with D14 primary osteoblasts is reported as “less Osteoprotegrin (OPG) production”. Also, the “effect on alkaline phosphatase activity, Runx 2, OPG and collagen protein synthesis” value in the data set on isolated osteoblasts was “an increase in alkaline phosphatase activity, and an increase in Runx 2, osteoprotegerin (OPG) and collagen protein synthesis”. Moreover, the “P3TP-Lux activation with co-transfected dominant negative type II TGFβ receptor” value in data set [2] is “block both TGFβ and TRAP activation of the pathway”. Besides, in data set [2] (TRAP 10 μg/ml, TGFβ 5 ng/ml, MG-63 shown, SaOS2 the same), the “upregulation of P3TP-Lux reporter gene” value is recorded as “strongly upregulate a reporter gene”. Also, the “activation of reporter gene in Smad4 deficient cells” value in the data set on SW408 cells is given as “neither TGFβ nor TRAP could activate the reporter gene”. For the same molecule, the “signaling after restoration of Smad4 and TRIP-1 protein” value with SW408 cells (cells transfected with Smad4 and TRIP-1) is “restores TGFβ and TRAP signaling”.
In the case of `C[S+](C)[O-]` [DMSO], the “protection from apoptosis induced by TRAP” value in the data set with ROS 17/2.8 cells is recorded as “did not protect cells from apoptosis induced by TRAP”.

B1: GST-TRAP: recombinant fusion protein of GST and TRAP, non-glycosyl protein made in bacteria (protein)
chain: ATPALRFVAVGDWGGVPNAPFHTAREMANAKEIARTVQILGADFILSLGDNFYFTGVQDINDKRFQETFEDVFSDRSLRKVPWYVLAGNHDHLGNVSAQIAYSKISKRWNFPSPFYRLHFKIPQTNVSVAIFMLDTVTLCGNSDDFLSQQPERPRDVKLARTQLSWLKKQLAAAREDYVLVAGHYPVWSIAEHGPTHCLVKQLRPLLATYGVTAYLCGHDHNLQYLQDENGVGYVLSGAGNFMDPSKRHQRKVPNGYLRFHYGTEDSLGGFAYVEISSKEMTVTYIEASGKSLFKTRLPRRARP
modifications: left off: a dimerising Fc or GST
notes: recombinant fusion protein of GST and TRAP, non-glycosyl protein made in bacteria
Turning to B1, in data set [3], the “proteins pulled down with glutathione beads” value was “the complex of the TGFβRII, HIS-TRIP and Smad 2 can be extracted and detected”. Further, in data set [4], the “cleaved caspase 3 and cleaved PARP” value is on record as “have the same effect on the cells”.
